System: human mature adipocytes
Experiment: Lipolytic activity: glycerol release by 3D culture of human mature adipocytes
Type: cell-based
Settings: 72 h of treatment, extract 0.5%
Experimental: Mature adipocytes were isolated from subcutaneous adipose tissue after digestion by collagenase. The isolated adipocytes were washed with a wash buffer and encapsulated in a peptidic hydrogel to form 3D adipocytes capsules of 25 μl in size. The formation of adipocytes capsules followed an internal standardized protocol to have about the same number of adipocytes between the capsules. Cells were then incubated for 24 h at 37° C. for stabilization. Treatments with Mastocarpus stellatus extract at 0.5% were initiated at D0 with a medium change; and the culture media were changed every day until 4 days of culture. At each culture media change, the cells secretions were collected, centrifuged and frozen at-80° C. for further analysis. Each culture condition was done in triplicate. The culture media after 72 h of treatment were collected. The concentrations of adiponectin and glycerol were evaluated by ELISA and colorimetric assays, respectively, using specific kits according to the manufacture's recommendations (adiponectin kit, Duoset, DY1065, R&D Systems; Glycerol kit, Randox, GY105).

CC(C)NCC(O)c1ccc(O)c(O)c1 (centres unmarked) [Isoproterenol]
Glycerol release (% of untreated), average (isoproterenol 1 μM (positive control)): 295.6 % of untreated | increase of glycerol release (isoproterenol 1 μM, vs untreated): +196%

Reference: patent US20250248922A1, “METHOD OF PREPARING A MASTOCARPUS STELLATUS EXTRACT” (GIVAUDAN SA, priority 2022, published 2025)
